The values below come from patent US12371454B2, “Cyclic peptide compound having Kras inhibitory action” (priority 2019, dated 2025).

Starred links: 1 amine or outer side, 2 acyl side, 3 side chain; linkers in the order of their positions; H or OH if unused. Positions of bridges follow the written chain, without caps; N, C: chain ends. Non-standard residues stand in square brackets, D forms with d. Residues, ends and D or L forms follow the SMILES beside them. *: point of attachment. hPhe(3-Cl-4-CF3) = N[C@@H](CCc1ccc(C(F)(F)F)c(Cl)c1)C(=O)O; X37 = O=C([C@H](CCc1ccc(C(F)F)c(F)c1)N[*:1])[*:2]; X85 = O=C([C@@H]1C[C@@H](n2ccnn2)CN1[*:1])[*:2]; X69 = O=C([C@@H]1C[C@H](n2ccnn2)CN1[*:1])[*:2]; X72 = COc1ccc(CC[C@H](N[*:1])C(=O)[*:2])cn1; NMeAla(cPent) = CN[C@@H](CC1CCCC1)C(=O)O; NMeGly(cPent) = CN[C@H](C(=O)O)C1CCCC1; NMeCha = CN[C@@H](CC1CCCCC1)C(=O)O; cisHyp = O=C(O)[C@@H]1C[C@H](O)CN1; Hyp = O=C(O)[C@@H]1C[C@@H](O)CN1; NMeChg = CN[C@H](C(=O)O)C1CCCCC1; NMeD = CN[C@@H](CC(=O)O)C(=O)O; NMeL = CN[C@@H](CC(C)C)C(=O)O; NMeV = CN[C@H](C(=O)O)C(C)C; Azetidin(1-yl) = C1CN(*)C1; NMeA = CN[C@@H](C)C(=O)O; Piperidide = C1CCN(*)CC1; Pyrrolidide = C1CCN(*)C1; Ac5c = NC1(C(=O)O)CCCC1; Aze = O=C(O)[C@@H]1CCN1; Ethyl(2,2-F2) = FC(F)C*; Ethyl(2-OH) = OCC*; X24 = c1cncc(C*)c1; Sar = CNCC(=O)O

This assay relates to Human pancreatic cancer cell line AsPC-1. Nature of the assay: Measurement of AsPC-1 cell growth inhibition (AsPC-1 CGI). The class given is cell-based. As to conditions: 96 h. Put shortly: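 AsPC-1 cells in 15% FBS RPMI-1640 were exposed to test compound for 96 hours at 37° C, with CellTiter-Glo as endpoint.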
`CC[C@H](C)[C@@H]1NC(=O)[C@H](CC(C)C)N(C)C(=O)C[C@@H](C(=O)N2CCCCC2)N(C)C(=O)[C@H](C2CCCC2)N(C)C(=O)C2(CCCC2)NC(=O)[C@@H]2CCCN2C(=O)[C@H](CCc2ccc(OC)nc2)NC(=O)CN(C)C(=O)[C@H](CC2CCCCC2)N(C)C(=O)[C@@H]2CCN2C(=O)[C@H](C)N(C)C1=O` [Compound 2084] ([NMeL]I[NMeA][Aze][NMeCha][Sar][X72]P[Ac5c][NMeGly(cPent)][NMeD]-Piperidide; lactam N-11) showed an IC50 of 100 to 500 nM.

The compound `CC[C@H](C)[C@@H]1NC(=O)[C@H](CC(C)C)N(C)C(=O)C[C@@H](C(=O)N2CCCCC2)N(C)C(=O)[C@H](C2CCCC2)N(C)C(=O)C2(CCCC2)NC(=O)[C@@H]2CCCN2C(=O)[C@H](CCc2ccc(C(F)F)c(F)c2)NC(=O)CN(C)C(=O)[C@H](CC2CCCCC2)N(C)C(=O)[C@@H]2CCN2C(=O)[C@H](C)N(C)C1=O` [Compound 2085, (5S,8S,11S,15S,18S,23aS,29S,35S,37aS)-8-((S)-sec-butyl)-35-(cyclohexylmethyl)-18-cyclopentyl-29-(4-(difluoromethyl)-3-fluorophenethyl)-11-isobutyl-5,6,12,16,19,33,36-heptamethyl-15-(piperidin-1-carbonyl)docosahydro-2H,4H-spiro[azeto[2,1-u]pyrrolo[2,1-i][1,4,7,10,13,16,19,22,25,28,31]undecazacyclotetratriacontyne-21,1′-cyclopentane]-4,7,10,13,17,20,23,28,31,34,37(14H,22H)-undecone] ([NMeL]I[NMeA][Aze][NMeCha][Sar][X37]P[Ac5c][NMeGly(cPent)][NMeD]-Piperidide; lactam N-11) came in with an IC50 of 100 to 500 nM.

On to `CC[C@H](C)[C@@H]1NC(=O)[C@H](CC(C)C)N(C)C(=O)C[C@@H](C(=O)N(C)C)N(C)C(=O)[C@H](C2CCCC2)N(C)C(=O)C2(CCCC2)NC(=O)[C@H](CC(=O)N2CCCC2)N(C)C(=O)[C@H](CCc2ccc(C(F)(F)F)c(Cl)c2)NC(=O)CN(C)C(=O)[C@H](CC2CCCCC2)N(C)C(=O)[C@@H]2CCN2C(=O)[C@H](C)N(C)C1=O` [Compound 2097] ([NMeL]I[NMeA][Aze][NMeCha][Sar][hPhe(3-Cl-4-CF3)][NMeD](Pyrrolidide)[Ac5c][NMeGly(cPent)][NMeD]-NMe2; lactam N-11), for which the IC50 lay in the range of 100 to 500 nM.

The compound `CC[C@H](C)[C@@H]1NC(=O)[C@H](CC(C)C)N(C)C(=O)C[C@@H](C(=O)N(C)C)N(C)C(=O)[C@H](C2CCCC2)N(C)C(=O)C2(CCCC2)NC(=O)[C@H](CC(=O)N2CCC2)N(C)C(=O)[C@H](CCc2ccc(C(F)(F)F)c(Cl)c2)NC(=O)CN(C)C(=O)[C@H](CC2CCCCC2)N(C)C(=O)[C@@H]2CCN2C(=O)[C@H](C)N(C)C1=O` [Compound 2102] ([NMeL]I[NMeA][Aze][NMeCha][Sar][hPhe(3-Cl-4-CF3)][NMeD](Azetidin(1-yl))[Ac5c][NMeGly(cPent)][NMeD]-NMe2; lactam N-11) registered an IC50 of 100 to 500 nM.

As for `CC[C@H](C)[C@@H]1NC(=O)[C@H](CC(C)C)N(C)C(=O)C[C@@H](C(=O)N2CCCCC2)N(C)C(=O)[C@H](C(C)C)N(C)C(=O)C2(CCCC2)NC(=O)[C@@H]2C[C@@H](n3ccnn3)CN2C(=O)[C@H](CCc2ccc(C(F)(F)F)c(Cl)c2)NC(=O)CN(C)C(=O)[C@H](CC2CCCC2)N(C)C(=O)CN(C)C(=O)CN(C)C1=O` [Compound 2113, (3S,9S,18S,21S,25S,28S,34S,36R)-3-[2-[3-chloro-4-(trifluoromethyl)phenyl]ethyl]-9-(cyclopentylmethyl)-21-isobutyl-28-isopropyl-7,10,13,16,22,26,29-heptamethyl-18-[(1S)-1-methylpropyl]-25-(piperidine-1-carbonyl)-36-(triazol-1-yl)spiro[1,4,7,10,13,16,19,22,26,29,32-undecazabicyclo[32.3.0]heptatriacontane-31,1′-cyclopentane]-2,5,8,11,14,17,20,23,27,30,33-undecone] ([NMeL]I[Sar][Sar][NMeAla(cPent)][Sar][hPhe(3-Cl-4-CF3)][X85][Ac5c][NMeV][NMeD]-Piperidide; lactam N-11), the IC50 is > 500 nM.

`CC[C@H](C)[C@@H]1NC(=O)[C@H](CC(C)C)N(C)C(=O)C[C@@H](C(=O)N2CCCCC2)N(C)C(=O)[C@H](C(C)C)N(C)C(=O)C2(CCCC2)NC(=O)[C@@H]2C[C@H](n3ccnn3)CN2C(=O)[C@H](CCc2ccc(C(F)(F)F)c(Cl)c2)NC(=O)CN(C)C(=O)[C@H](CC2CCCC2)N(C)C(=O)CN(C)C(=O)CN(C)C1=O` [Compound 2115, (3S,9S,18S,21S,25S,28S,34S,36S)-3-[2-[3-chloro-4-(trifluoromethyl)phenyl]ethyl]-9-(cyclopentylmethyl)-21-isobutyl-28-isopropyl-7,10,13,16,22,26,29-heptamethyl-18-[(1S)-1-methylpropyl]-25-(piperidine-1-carbonyl)-36-(triazol-1-yl)spiro[1,4,7,10,13,16,19,22,26,29,32-undecazabicyclo[32.3.0]heptatriacontane-31,1′-cyclopentane]-2,5,8,11,14,17,20,23,27,30,33-undecone] ([NMeL]I[Sar][Sar][NMeAla(cPent)][Sar][hPhe(3-Cl-4-CF3)][X69][Ac5c][NMeV][NMeD]-Piperidide; lactam N-11): the IC50 is > 500 nM.

Consider `CC[C@H](C)[C@@H]1NC(=O)[C@H](CC(C)C)N(C)C(=O)C[C@@H](C(=O)N2CCCCC2)N(C)C(=O)[C@H](C2CCCCC2)N(C)C(=O)C2(CCCC2)NC(=O)[C@@H]2C[C@H](OCCO)CN2C(=O)[C@H](CCc2ccc(C(F)(F)F)c(Cl)c2)NC(=O)CN(C)C(=O)[C@H](CC2CCCCC2)N(C)C(=O)CN(C)C(=O)CN(C)C1=O` [Compound 2117, (3S,9S,18S,21S,25S,28S,34S,36S)-3-[2-[3-chloro-4-(trifluoromethyl)phenyl]ethyl]-28-cyclohexyl-9-(cyclohexylmethyl)-36-(2-hydroxyethoxy)-21-isobutyl-7,10,13,16,22,26,29-heptamethyl-18-[(1S)-1-methylpropyl]-25-(piperidine-1-carbonyl)spiro[1,4,7,10,13,16,19,22,26,29,32-undecazabicyclo[32.3.0]heptatriacontane-31,1′-cyclopentane]-2,5,8,11,14,17,20,23,27,30,33-undecone] ([NMeL]I[Sar][Sar][NMeCha][Sar][hPhe(3-Cl-4-CF3)][cisHyp](Ethyl(2-OH))[Ac5c][NMeChg][NMeD]-Piperidide; lactam N-11), for which the IC50 was in the range of 100 to 500 nM.

For `CC[C@H](C)[C@@H]1NC(=O)[C@H](CC(C)C)N(C)C(=O)C[C@@H](C(=O)N2CCCCC2)N(C)C(=O)[C@H](C2CCCCC2)N(C)C(=O)C2(CCCC2)NC(=O)[C@@H]2C[C@@H](OCC(F)F)CN2C(=O)[C@H](CCc2ccc(C(F)(F)F)c(Cl)c2)NC(=O)CN(C)C(=O)[C@H](CC2CCCCC2)N(C)C(=O)CN(C)C(=O)CN(C)C1=O` [Compound 2119] ([NMeL]I[Sar][Sar][NMeCha][Sar][hPhe(3-Cl-4-CF3)][Hyp](Ethyl(2,2-F2))[Ac5c][NMeChg][NMeD]-Piperidide; lactam N-11), the IC50 is 20 to 50 nM.

For the compound `CC[C@H](C)[C@@H]1NC(=O)[C@H](CC(C)C)N(C)C(=O)C[C@@H](C(=O)N2CCCCC2)N(C)C(=O)[C@H](C2CCCCC2)N(C)C(=O)C2(CCCC2)NC(=O)[C@@H]2C[C@H](OCc3cccnc3)CN2C(=O)[C@H](CCc2ccc(C(F)(F)F)c(Cl)c2)NC(=O)CN(C)C(=O)[C@H](CC2CCCCC2)N(C)C(=O)CN(C)C(=O)CN(C)C1=O` [Compound 2120] ([NMeL]I[Sar][Sar][NMeCha][Sar][hPhe(3-Cl-4-CF3)][cisHyp](X24)[Ac5c][NMeChg][NMeD]-Piperidide; lactam N-11), the IC50 fell in the range of 100 to 500 nM.

Take `CC[C@H](C)[C@@H]1NC(=O)[C@H](CC(C)C)N(C)C(=O)C[C@@H](C(=O)N2CCCCC2)N(C)C(=O)[C@H](C2CCCCC2)N(C)C(=O)C2(CCCC2)NC(=O)[C@@H]2C[C@@H](OCc3cccnc3)CN2C(=O)[C@H](CCc2ccc(C(F)(F)F)c(Cl)c2)NC(=O)CN(C)C(=O)[C@H](CC2CCCCC2)N(C)C(=O)CN(C)C(=O)CN(C)C1=O` [Compound 2121] ([NMeL]I[Sar][Sar][NMeCha][Sar][hPhe(3-Cl-4-CF3)][Hyp](X24)[Ac5c][NMeChg][NMeD]-Piperidide; lactam N-11): the IC50 was 50 to 100 nM.

For the compound `CC[C@H](C)[C@@H]1NC(=O)[C@H](CC(C)C)N(C)C(=O)C[C@@H](C(=O)N2CCCCC2)N(C)C(=O)[C@H](C2CCCCC2)N(C)C(=O)C2(CCCC2)NC(=O)[C@@H]2C[C@@H](OCCO)CN2C(=O)[C@H](CCc2ccc(C(F)(F)F)c(Cl)c2)NC(=O)CN(C)C(=O)[C@H](CC2CCCCC2)N(C)C(=O)CN(C)C(=O)CN(C)C1=O` [Compound 2122, (3S,9S,18S,21S,25S,28S,34S,36R)-3-[2-[3-chloro-4-(trifluoromethyl)phenyl]ethyl]-28-cyclohexyl-9-(cyclohexylmethyl)-36-(2-hydroxyethoxy)-21-isobutyl-7,10,13,16,22,26,29-heptamethyl-18-[(1S)-1-methylpropyl]-25-(piperidine-1-carbonyl)spiro[1,4,7,10,13,16,19,22,26,29,32-undecazabicyclo[32.3.0]heptatriacontane-31,1′-cyclopentane]-2,5,8,11,14,17,20,23,27,30,33-undecone] ([NMeL]I[Sar][Sar][NMeCha][Sar][hPhe(3-Cl-4-CF3)][Hyp](Ethyl(2-OH))[Ac5c][NMeChg][NMeD]-Piperidide; lactam N-11), the IC50 lay in the range of 50 to 100 nM.

The compound `CC[C@H](C)[C@@H]1NC(=O)[C@H](CC(C)C)N(C)C(=O)C[C@@H](C(=O)N2CCCCC2)N(C)C(=O)[C@H](C2CCCCC2)N(C)C(=O)C2(CCCC2)NC(=O)[C@@H]2C[C@H](OCC(F)F)CN2C(=O)[C@H](CCc2ccc(C(F)(F)F)c(Cl)c2)NC(=O)CN(C)C(=O)[C@H](CC2CCCCC2)N(C)C(=O)CN(C)C(=O)CN(C)C1=O` [Compound 2123] ([NMeL]I[Sar][Sar][NMeCha][Sar][hPhe(3-Cl-4-CF3)][cisHyp](Ethyl(2,2-F2))[Ac5c][NMeChg][NMeD]-Piperidide; lactam N-11) showed an IC50 of 100 to 500 nM.

Broadly, the IC50 is the midpoint of a concentration-inhibition curve. Low values mean higher potency, high ones lower potency.
